Here are results for one compound from article PMC6014988, “Precision therapeutic targeting of human cancer cell motility” (Nature Communications, 2018).

Read-outs that look alike come from different tables or passages of the source.

Series [1] can be described thus: Pharmacokinetics in CD1 mice, oral gavage and iv. Type of series: in vivo, mouse. Here is the method:
For determination of pharmacokinetic (PK) parameters, KBU2046 was administered by either intravenous injection or oral gavage to groups of N = 3 CD1(ICR) mice at 0 (i.e., vehicle only), 25, or 100 mg/kg. Blood was collected into EDTA by terminal cardiac puncture before drug administration (i.e., baseline) and at 5, 10, 15, 30, 45, 60, 90, 120, 180, 240, 360, 480, 960, 1440 min after administration. In separate experiments, as described above, Balb/c athymic mice were dosed with KBU2046 incorporated into chow for 35 days, after which blood was collected by terminal cardiac puncture. Resultant plasma (~250 μl/mouse) was stored at −80 °C.
Plasma KBU2046 concentrations were measured in duplicate by liquid chromatography-tandem mass spectrometry after sample preparation by solid-phase extraction. Specifically, 0.1 mL of a sample, 10 μL of 0.1 μg/mL internal standard solution (3-(2-chlorophenyl)-(4H-1-benzopyran-4-one, a chloride analog of KBU2046), 3800 μL of water, and 10 μl of 85% phosphoric acid were added, vortexed, and stored at 4 °C for 2 h. After washing a 96-well Strata-X 33 µm polymeric reversed phase 30 mg/well solid-phase extraction plate (Phenomenex) with methanol and water, sample was applied, washed with 20% methanol in water, eluted with 70% acetonitrile/30% methanol, dried at 50 °C under N2, reconstituted with 100 μL of mobile phase, and 20 µL was analyzed on an API 3000 liquid chromatography-tandem mass spectrometry system (Applied Biosystems) with an Agilent 1100 series HPLC system (Agilent Technologies). Samples were eluted isocratically from a Synergi 4-μm MAX-RP 100 Å column (2.0 × 50 mm; Phenomenex) by a mobile phase consisting of 10 mM ammonium formate in water and methanol (30:70 [vol/vol]) at a flow rate of 0.20 mL/min. The tandem mass spectrometer was operated with its electrospray source in the positive ionization mode. The mass-to-charge ratios of the precursor-to-product ion reactions monitored were 243.5 → 125.1 for KBU2046 and 257.0 → 165.0 for the internal standard. The retention time of KBU2046 was ~2.7 min while that of the internal standard was ~2.3 min. The linear range for plasma KBU2046 standard curves was 0.1–25.0 ng/mL, with coefficients of variation of 10% or less throughout the entire concentration range. Fresh plasma standard curves were prepared in blank plasma and run on the day of analysis of plasma samples.
Plasma KBU2046 concentration vs. time relationships after both intravenous and oral drug administration were modeled simultaneously using the SAAM II software system (SAAM Institute), implemented on a WindowsTM-based PC (see PK modeling schema). Plasma concentrations were modeled with a three-compartment PK model using a naive pooled data approach. Oral drug absorption was characterized by a tanks-in-series delay element, to account for the non-instantaneous appearance of drug in the body. Simultaneous estimation of PK model parameters for both routes of administration permitted estimation of the bioavailability of the orally administered drug (F)[41]. The SAAM II objective function used was the extended least-squares maximum likelihood function using data weighted with the inverse of the model-based variance of the data at the observation times. Model misspecification was sought by visual inspection of the measured and predicted marker concentrations vs. time relationships (Fig. 7)[42].

Series [2] concerns protein phosphorylation in PC3-M and PC3 cells. In words: KinomeView phospho-motif antibody screen. It is filed as cell-based, human. The settings on record: 10 µM, 3 days, ± TGFβ. How it is done:
The Kinoview™ and PhosphoScan™ assays were performed by Cell Signaling Technology Inc.
Supplementary Figure 10. Proteomic analysis of the effects of KBU2046 on the kinome. (a-c) Screening for effects on the kinome. PC3-M cells were pre-treated with 10 µM KBU2046, genistein or vehicle control for 3 days, then with ± TGFβ, as indicated. Resultant cell lysate, as well as lysate from tumors from mice treated with 150 mg/kg KBU2046 or control mice (from manuscript Figure 2a), were then probed with the KinomeView® panel of antibodies by Western blot. In instances where KBU2046 was inhibiting protein phosphorylation in cells and in tumors, a repeat experiment of PC3-M cells was conducted (Experiment #2). In addition to including PC3-M cells, as in Experiment #1, Experiment #2 expanded to examine effects on PC3 cells. (a) The identification of an 83 kDa band of interest (red arrows). This constitutes the only change […]
as in tumor tissue. […] (c) All […]
other Western blots of phospho-motif antibodies that were evaluated on initial screen. NI = tumor not informative; this denotes a tumor sample that yielded an abnormal coomassie blue staining pattern. Data from this sample was therefore not considered further.
(also on this page, place not known: cat #C32G12; tPE cat #2981; sRXY, FXs NI NI cat #2351; tXR cat #23C8D12; RXRXX(s/t) NI NI)
(1 picture or pasted object on this page, not shown here)

For another series, the system named is 1532NPTX. In words: Three-day MTT cell growth inhibition assay, 1532NPTX. Type of series: cell-based, human. The settings on record: Homo sapiens, 72 h, 3 days.
Test in series [3]: as above
The following applies: human, 1532NPTX cells. Type of series: cell-based, human.

Setting [4] is: combined fit of both doses by both routes.

The term half-life denotes how long it takes for the measured level to halve. As a reminder, the bioavailability is dose-corrected exposure relative to a reference, in per cent. One may read the IC20 as the point of the concentration-response curve where the effect stands at 20%. Low readings indicate an effect from little substance, high ones a need for much substance. In general, IC50 refers to the point on the concentration scale where inhibition reaches its midpoint. A higher IC50 goes with weaker potency. A word on the viability: it is a per cent measure of how many cells are alive, often set against a control. Take `O=C1c2ccccc2OCC1c1ccc(F)cc1` (racemic) [KBU2046, (±)-3(4-fluorophenyl)chroman-4-one]: in series [1] (CD1(ICR), mouse, plasma, combined fit of both doses by both routes, read-out: Clearance, Elimination CLE), the clearance was 1.53 mL/min. The clearance in series [1] (CD1(ICR), mouse, plasma, combined fit of both doses by both routes, read-out: Clearance, Fast CLF) turned out to be 0.61 mL/min. Besides, the clearance in series [1] (CD1(ICR), mouse, plasma, combined fit of both doses by both routes, read-out: Clearance, Slow CLS) was determined as 0.11 mL/min. In series [1] (CD1(ICR), mouse, plasma, combined fit of both doses by both routes, read-out: Distribution volume, Total VSS), the Vd came out at 0.0636 L. The half-life in series [1] (CD1(ICR), mouse, plasma, combined fit of both doses by both routes, read-out: Elim Half-life (converted)) was 2.27 h. Also, the bioavailability in series [1] (CD1(ICR), mouse, plasma, 25 mg/kg by oral gavage) was found to be 4.6%. Besides, the bioavailability in series [1] (CD1(ICR), mouse, plasma, 100 mg/kg by oral gavage) was determined as 10.1%. Also, in series [1] (setting [4]), the Absorption delay was 32.3 min; the “Distribution volume, Central VC” value is given as 19.3 mL; the “Distribution volume, Fast VF” value was determined as 20.4 mL; the “Distribution volume, Slow VS” value came out at 23.9 mL. For the same compound, in series [1] (single oral dose), the “time plasma concentrations maintained >24 nM” value was 9.3 h. Further, the “changes in protein phosphorylation” value in series [2] was “only a single change”. In the series on 1532NPTX, this compound displayed an IC20 above 50 µM and a half-maximal inhibitory concentration (IC50) above 50 µM. The same compound showed a viability at 3 days, 50 µM in series [3] of 95.3%.
